This note sets out measurements from ChEMBL document CHEMBL5247659, “Design, Structure-Activity Relationships, and In Vivo Evaluation of Potent and Brain-Penetrant Imidazo[1,2-b]pyridazines as Glycogen Synthase Kinase-3β (GSK-3β) Inhibitors” (J Med Chem, 2023).

Data set [1] in a line: Inhibition of N-terminal 6-His tagged human recombinant GSK3-beta H355L mutant using FL-KRREILSRRP[ps]ERYR-NH2 as substrate incubated for 20 hrs.
The target of data set [2] is Glycogen synthase kinase-3 alpha (Homo sapiens, UniProt P49840). In words: Inhibition of full length GST-tagged human recombinant GSK3-alpha using FL-KRREILSRRP[ps]ERYR-NH2 as substrate incubated for 20 hrs.
Sequence of Glycogen synthase kinase-3 alpha (P49840 whole entry): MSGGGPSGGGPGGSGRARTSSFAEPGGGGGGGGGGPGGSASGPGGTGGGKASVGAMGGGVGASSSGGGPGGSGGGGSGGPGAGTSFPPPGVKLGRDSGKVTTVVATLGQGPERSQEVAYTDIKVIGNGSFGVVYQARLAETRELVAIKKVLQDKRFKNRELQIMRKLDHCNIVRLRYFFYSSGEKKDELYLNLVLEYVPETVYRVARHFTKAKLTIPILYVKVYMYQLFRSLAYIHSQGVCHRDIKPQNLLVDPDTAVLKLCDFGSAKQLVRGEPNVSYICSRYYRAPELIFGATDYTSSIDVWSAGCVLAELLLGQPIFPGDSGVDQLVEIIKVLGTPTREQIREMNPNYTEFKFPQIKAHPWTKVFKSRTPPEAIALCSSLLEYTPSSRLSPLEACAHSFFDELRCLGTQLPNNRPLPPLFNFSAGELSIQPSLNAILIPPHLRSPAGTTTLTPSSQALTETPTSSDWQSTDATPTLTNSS
The nature of data set [3]: Metabolic stability in human liver microsomes assessed as parent compound remaining at 0.5 uM incubated for 10 mins by LC-MS/MS analysis. The format is ADME, Microsome. The note with it: read-out: Stability.
The nature of data set [4]: Metabolic stability in mouse liver microsomes assessed as parent compound remaining at 0.5 uM incubated for 10 mins by LC-MS/MS analysis. The format is ADME, Microsome. The note with it: read-out: Stability.
Data set [5] in a line: Plasma protein binding in mouse assessed as unbound fraction at 10 uM measured for 5 hrs by equilibrium dialysis based LC-MS/MS analysis. The format is ADME, cell-free.
A short description of data set [6]: Plasma protein binding in human assessed as unbound fraction at 10 uM measured for 5 hrs by equilibrium dialysis based LC-MS/MS analysis. The format is ADME, cell-free.
Data set [7] in a line: Permeability of compound at pH 5.5 incubated for 4 hrs by PAMPA assay. The format is ADME. The note with it: read-out: permeability.
A short description of data set [8]: Permeability of compound at pH 7.4 incubated for 4 hrs by PAMPA assay. The format is ADME. To be noted: read-out: permeability.
The nature of data set [9]: Permeability across apical to basolateral side in human Caco-2 cells at 3 uM incubated for 2 hrs by LC-MS/MS analysis. The format is ADME, cell-based. To be noted: read-out: permeability.
A short description of data set [10]: Permeability across basolateral to apical side in human Caco-2 cells at 3 uM incubated for 2 hrs by LC-MS/MS analysis. The format is ADME, cell-based. The note with it: read-out: permeability.
The target in a further data set is P-glycoprotein (ABCB1) (Homo sapiens, UniProt P08183). In words: Substrate activity at P-glycoprotein in human Caco-2 cells assessed as efflux ratio of permeability across basolateral to apical side over apical to basolateral side at 3 uM incubated for 2 hrs by LC-MS/MS analysis. The format is ADME, cell-based.
Sequence of P-glycoprotein (ABCB1) (P08183 whole entry): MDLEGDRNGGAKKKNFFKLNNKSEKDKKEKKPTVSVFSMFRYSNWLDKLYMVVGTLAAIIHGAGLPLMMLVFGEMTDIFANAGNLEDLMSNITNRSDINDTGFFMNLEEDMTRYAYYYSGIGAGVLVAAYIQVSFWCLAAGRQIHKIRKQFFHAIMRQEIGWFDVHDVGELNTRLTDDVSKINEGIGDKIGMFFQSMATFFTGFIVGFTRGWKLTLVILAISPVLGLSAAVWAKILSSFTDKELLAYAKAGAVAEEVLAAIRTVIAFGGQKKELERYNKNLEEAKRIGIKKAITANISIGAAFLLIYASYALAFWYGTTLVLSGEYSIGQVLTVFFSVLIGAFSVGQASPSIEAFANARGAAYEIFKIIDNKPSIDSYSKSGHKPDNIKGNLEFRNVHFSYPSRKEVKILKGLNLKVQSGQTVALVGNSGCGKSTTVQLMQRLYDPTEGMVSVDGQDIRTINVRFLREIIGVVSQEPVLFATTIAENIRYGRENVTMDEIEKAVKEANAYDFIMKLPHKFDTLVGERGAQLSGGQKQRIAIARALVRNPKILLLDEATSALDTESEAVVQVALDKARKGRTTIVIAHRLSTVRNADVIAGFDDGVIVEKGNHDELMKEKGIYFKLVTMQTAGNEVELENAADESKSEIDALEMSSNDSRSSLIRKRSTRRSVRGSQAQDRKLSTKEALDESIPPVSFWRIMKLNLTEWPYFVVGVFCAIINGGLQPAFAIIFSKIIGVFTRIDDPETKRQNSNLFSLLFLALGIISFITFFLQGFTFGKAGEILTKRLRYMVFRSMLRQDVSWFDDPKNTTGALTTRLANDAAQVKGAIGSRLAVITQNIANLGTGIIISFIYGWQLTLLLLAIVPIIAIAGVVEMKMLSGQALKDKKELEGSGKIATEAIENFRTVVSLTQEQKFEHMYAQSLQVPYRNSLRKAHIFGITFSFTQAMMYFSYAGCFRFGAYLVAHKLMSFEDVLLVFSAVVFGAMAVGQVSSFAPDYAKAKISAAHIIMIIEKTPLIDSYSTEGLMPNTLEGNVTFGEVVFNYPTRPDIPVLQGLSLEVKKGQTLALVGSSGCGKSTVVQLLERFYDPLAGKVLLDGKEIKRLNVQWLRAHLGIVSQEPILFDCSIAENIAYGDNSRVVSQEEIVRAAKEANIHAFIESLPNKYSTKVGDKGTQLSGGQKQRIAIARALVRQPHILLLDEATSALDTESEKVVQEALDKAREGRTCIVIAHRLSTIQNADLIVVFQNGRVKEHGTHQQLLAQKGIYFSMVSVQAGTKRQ
A short description of data set [11]: Inhibition of tau 4R1N phosphorylation (unknown origin) at S396 residue transfected in human U2OS cells coexpressing GFP-tagged beta catenin incubated overnight by high content imaging assay.
Data set [12] is described as follows: Clearance in 8 hr fasted C57BL6 mouse at 2 mg/kg, iv. The format is ADME, organism-based. The note with it: in vivo.
Data set [13] is described as follows: Volume of distribution at steady state in 8 hr fasted C57BL6 mouse at 2 mg/kg, iv. The format is ADME, organism-based. The note with it: in vivo, read-out: Vdss.
A short description of data set [14]: MRT in 8 hr fasted C57BL6 mouse at 2 mg/kg, iv. The format is ADME, organism-based. To be noted: in vivo.
The nature of data set [15]: Half life in 8 hr fasted C57BL6 mouse at 2 mg/kg, iv. The format is ADME, organism-based. To be noted: in vivo.
A short description of data set [16]: AUC tot in 8 hr fasted C57BL6 mouse at 10 mg/kg, po. The format is ADME, organism-based. Set-up: dose 10 mg/kg, route po. The note with it: in vivo.
Data set [17] in a line: Cmax in 8 hr fasted C57BL6 mouse at 10 mg/kg, po. To be noted: in vivo. Also noted: dose 10 mg/kg, route po. The format is ADME, organism-based.
Data set [18] in a line: Oral bioavailability in 8 hr fasted C57BL6 mouse at 10 mg/kg. The format is ADME, organism-based. To be noted: in vivo.
The target of data set [19] is Glycogen synthase kinase-3 beta (Homo sapiens, UniProt P49841). Kind of data set: Inhibition of GSK3-beta (unknown origin).
Sequence of Glycogen synthase kinase-3 beta (P49841 whole entry): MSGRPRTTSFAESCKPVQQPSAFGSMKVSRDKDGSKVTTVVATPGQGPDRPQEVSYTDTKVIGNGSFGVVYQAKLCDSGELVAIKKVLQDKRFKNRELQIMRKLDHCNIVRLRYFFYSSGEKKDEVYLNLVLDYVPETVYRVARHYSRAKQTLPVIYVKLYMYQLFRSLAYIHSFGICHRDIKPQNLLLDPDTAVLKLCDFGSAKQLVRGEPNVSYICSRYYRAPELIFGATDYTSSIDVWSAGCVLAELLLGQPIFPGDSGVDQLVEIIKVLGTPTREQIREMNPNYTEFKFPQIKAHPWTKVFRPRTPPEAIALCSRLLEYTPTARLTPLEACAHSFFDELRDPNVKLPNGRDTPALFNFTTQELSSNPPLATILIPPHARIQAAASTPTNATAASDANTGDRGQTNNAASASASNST

Regarding `O=C(Nc1cccnc1)c1ccnn2c(NCC3CC3)cnc12`, the IC50 in data set [1] came to 220 nM; in data set [2], 510 nM.
In the same order, the values of `C[C@H]1CN(c2ccncc2NC(=O)c2ccnn3cc(-c4ccccc4)nc23)CCO1` are 0.13 nM and 0.1 nM.
`O=C(Nc1cccnc1)c1ccnn2cc(-c3ccccc3)nc12`: the half-inhibitory concentration (IC50) in data set [2] was found to be 6.7 nM.
For `O=C(Nc1cnccc1N1CCC(F)(F)CC1)c1ccnn2cc(-c3ccccc3)nc12`, the concentration for half-maximal inhibition (IC50) in data set [1] came to 0.37 nM; in [2] it was 0.22 nM; in data set [11] it was 30 nM. Moreover, the remaining at 10 min, 0.5 µM is 40% in data set [3] and 36% in data set [4]. For the same molecule, the fraction unbound at 5 h, 10 µM in [5] was 0.002; in [6], 0.005. The Papp at 4 h was 58.1 ×10⁻⁶ cm/s in data set [7] and 64.2 ×10⁻⁶ cm/s in data set [8]. In addition, the Papp A→B at 2 h, 3 µM in [9] stood at 7 ×10⁻⁶ cm/s. The Papp B→A at 2 h, 3 µM in data set [10] was determined as 3 ×10⁻⁶ cm/s. For the same molecule, the efflux ratio at 2 h, 3 µM on P-glycoprotein (ABCB1) was less than 1.
`CC1CN(c2ccncc2NC(=O)c2ccnn3ccnc23)CCO1` (centres undefined): the IC50 in [1] stood at 7 nM.
The same measure, in the same setting: then `O=C(Nc1cnccc1N1CCOCC1)c1ccnn2c(NCC3CC3)cnc12`, with 9 nM.
For the molecule `O=C(Nc1cnccc1-c1ccccc1)c1ccnn2c(NCC3CC3)cnc12`, the 50% inhibitory concentration (IC50) in data set [1] came to 3.5 nM; in data set [2] it was 2 nM.
On to `COc1ccccc1-c1cn2nccc(C(=O)Nc3cnccc3N3CCOC(C)C3)c2n1` (centres undefined), for which the figures for the 50% inhibitory concentration (IC50) in data set [1] and in [2] were 0.57 nM and 0.38 nM, respectively.
Turning to `CC1CN(c2ccncc2NC(=O)c2ccnn3cc(C4CC4)nc23)CCO1` (centres undefined), the IC50 in [1] amounted to 2.6 nM; in data set [11], 60 nM. Moreover, the remaining at 10 min, 0.5 µM was determined as 3% in data set [3] and 4% in data set [4]. In addition, the free fraction (fraction unbound) at 5 h, 10 µM is 0.031 in data set [5] and 0.015 in data set [6]. The Papp at 4 h in data set [7] turned out to be 86.9 ×10⁻⁶ cm/s; in [8], 107 ×10⁻⁶ cm/s. In addition, the Papp A→B at 2 h, 3 µM in data set [9] was 22.3 ×10⁻⁶ cm/s. The Papp B→A at 2 h, 3 µM in data set [10] amounted to 13.3 ×10⁻⁶ cm/s. For the same molecule, the clearance in data set [12] turned out to be 49.5 mL/min/kg. Further, the Vd in data set [13] turned out to be 1.9 L/kg. In data set [14], this molecule had a mean residence time MRT of 0.6 h. The molecule also had a half-life in data set [15] of 1.1 h. In data set [16], this molecule showed an AUC of 3.3 µM·h. In data set [17], this molecule displayed a peak concentration (Cmax) of 1.3 µM. For the same molecule, the bioavailability in data set [18] was determined as 37%. The efflux ratio at 2 h, 3 µM at P-glycoprotein (ABCB1) is less than 1.
As to `O=C(Nc1cnccc1-c1ccc(F)cc1)c1ccnn2cc(C3CC3)nc12`, the IC50 in [1] worked out at 1.9 nM; in [2] it was 0.44 nM.
Take `C[C@@H]1COCCN1c1ccncc1NC(=O)c1ccnn2cc(-c3ccccc3)nc12`: the 50% inhibitory concentration (IC50) in data set [1] amounted to 3.4 nM.
With `O=C(Nc1cnccc1N1CCC(F)(F)CC1)c1ccnn2ccnc12`, the values for the IC50 in [1] and in [2] were 4.6 nM and 2.4 nM, respectively.
Consider `O=C(Nc1cnc(Cl)cc1N1CCC(F)(F)CC1)c1ccnn2cc(-c3ccccc3)nc12`, for which, in data set [1], the IC50 came to 14 nM.
Regarding `COc1cncc(NC(=O)c2ccnn3cc(-c4ccccc4)nc23)c1`, the half-maximal inhibitory concentration (IC50) in data set [1] amounted to 37 nM; in [2], 7.5 nM.
Consider `CC1CN(c2ccncc2NC(=O)c2ccnn3c(NCC4CC4)cnc23)CCO1` (centres undefined), for which the half-maximal inhibitory concentration (IC50) in [1] came to 5.2 nM.
For `O=C(Nc1cnccc1N1CCOCC1)c1ccnn2cc(-c3ccccc3)nc12`, the IC50 turned out to be 0.42 nM in data set [1], 0.21 nM in data set [2] and 36 nM in [11]. The remaining at 10 min, 0.5 µM in data set [3] worked out at 31%; in data set [4] it was 9%. The free fraction (fraction unbound) at 5 h, 10 µM in [5] is 0.01; in [6] it was 0.012. The Papp at 4 h in data set [7] is 7.8 ×10⁻⁶ cm/s; in data set [8], 29.8 ×10⁻⁶ cm/s. The Papp A→B at 2 h, 3 µM in data set [9] amounted to 32.2 ×10⁻⁶ cm/s. For the same molecule, in [10], the Papp B→A at 2 h, 3 µM was 9.9 ×10⁻⁶ cm/s. The molecule also registered a clearance in data set [12] of 10.6 mL/min/kg. Further, the Vd in data set [13] was 1.5 L/kg. The same molecule displayed an MRT in data set [14] of 2.4 h. For the same molecule, in data set [15], the half-life is 3.1 h. The molecule further showed an AUC in [16] of 47 µM·h. Moreover, the highest level in data set [17] (Cmax) was 10.7 µM. In addition, the bioavailability in data set [18] came to 100%. The efflux ratio at 2 h, 3 µM on P-glycoprotein (ABCB1) was less than 1.
Turning to `O=C(Nc1cnccc1N1CCC(F)(F)CC1)c1ccnn2cc(C3CC3)nc12`, the values for the IC50 in data set [1], in data set [2] and in data set [11] were 0.43 nM, 0.18 nM and 120 nM, respectively.
`O=C(Nc1cnccc1N1CCCCC1)c1ccnn2cc(-c3ccccc3)nc12`: the concentration for half-maximal inhibition (IC50) in [1] was 1.1 nM; in data set [2], 0.24 nM.
For `O=C(Nc1cnccc1N1CCOCC1)c1ccnn2cc(-c3ccc(C(F)(F)F)cc3)nc12`, the IC50 in [1] turned out to be 0.78 nM; in data set [2] it was 0.23 nM.
`O=C(Nc1cnccc1-c1ccc(F)cc1)c1ccnn2cc(-c3ccccc3)nc12`: the IC50 in data set [1] amounted to 1.6 nM; in data set [2], 1.1 nM. For the same molecule, the remaining at 10 min, 0.5 µM in [3] was 91%; in data set [4], 92%. Besides, the figures for the free fraction (fraction unbound) at 5 h, 10 µM in [5] and in [6] were 0.002 and 0.003, respectively. Moreover, in data set [7], the Papp at 4 h came to 96 ×10⁻⁶ cm/s.
Consider `Cc1ccncc1NC(=O)c1ccnn2c(NCC3CC3)cnc12`, for which the IC50 in data set [1] is 63 nM.
For the molecule `CS(=O)(=O)c1ccncc1NC(=O)c1ccnn2cc(-c3ccccc3)nc12`, the IC50 in [1] turned out to be 1.5 nM.
On to `O=C(Nc1cnccc1N1CCC(F)(F)CC1)c1ccnn2c(NCC3CC3)cnc12`, for which the figures for the IC50 in data set [1], in data set [2] and in data set [11] were 0.87 nM, 1.4 nM and 41 nM, respectively.
As to `O=C(Nc1cnccc1OCC(F)(F)F)c1ccnn2cc(-c3ccccc3)nc12`, the half-inhibitory concentration (IC50) in [1] worked out at 0.29 nM; in data set [2] it was 0.09 nM.
As for `CC(C)Oc1ccncc1NC(=O)c1ccnn2c(NCC3CC3)cnc12`, the 50% inhibitory concentration (IC50) in [1] worked out at 6.7 nM.
As to `O=C(Nc1cnccc1-c1ccccc1)c1ccnn2cc(-c3ccccc3)nc12`, the IC50 in [1] came out at 3.6 nM; in data set [11], 910 nM. The results for the remaining at 10 min, 0.5 µM in data set [3] and in data set [4] were 79% and 83%, respectively. The unbound share (fraction unbound) at 5 h, 10 µM in [5] is 0.003; in data set [6], less than 0.001. The Papp at 4 h in data set [7] was found to be 20.2 ×10⁻⁶ cm/s; in data set [8], 28.2 ×10⁻⁶ cm/s.
Take `CC1CN(c2ccncc2NC(=O)c2ccnn3cc(-c4ccc(C(F)(F)F)cc4)nc23)CCO1` (centres undefined): the 50% inhibitory concentration (IC50) in [1] was 1.4 nM; in data set [2], 0.57 nM.
As to `Cc1ccncc1NC(=O)c1ccnn2cc(-c3ccccc3)nc12`, the IC50 in data set [1] worked out at 3.5 nM.
Regarding `C[C@H]1COCCN1c1ccncc1NC(=O)c1ccnn2cc(-c3ccccc3)nc12`, in data set [2], the 50% inhibitory concentration (IC50) was determined as 0.32 nM.
For `CC(C)Oc1ccncc1NC(=O)c1ccnn2cc(-c3ccccc3)nc12`, the IC50 in data set [1] worked out at 0.7 nM; in data set [2], 0.41 nM; in [11], 83 nM.
In the case of `CC(C)OCCCC(=O)c1n[nH]cc1NC(=O)c1ccccc1`, in data set [19], the IC50 came out at 2 nM.
For `C[C@@H]1CN(c2ccncc2NC(=O)c2ccnn3cc(-c4ccccc4)nc23)CCO1`, the IC50 was found to be 0.82 nM in data set [1] and 0.34 nM in data set [2].
